# Measured values: patent US6017923A, “Carbo-acyclic nucleoside derivatives as antiviral and antineoplastic agents” (Hoechst Marion Roussel, Inc., priority 1996, dated 2000)
# Tested on: HeLa cells
# Experiment: Inhibitory effects of compounds on HeLa cell proliferation in vitro (96 h)
# Type: cell-based
# Settings: Homo sapiens, exponentially growing, concentration at 50% inhibition of cell growth
# Protocol: INHIBITORY EFFECTS OF COMPOUNDS ON HeLa CELL PROLIFERATION The inhibitory effect of various compounds of formula (1) on HeLa cell proliferation invitro was determined according to the method described by Sunkara et al. [J. Natl. Cancer Instit. 70, 505-509 (1983)]. Exponentially growing HeLa cells were incubated in the presence or absence of various concentrations of test compounds for 96 hours. IC50 values were calculated which represent the test compound concentration at 50% inhibition of cell growth.
row,IC50 [µg/mL],SMILES
1,1,"Nc1ncnc2c1ncn2CC/C(=C/F)CO [Compound B, (Z)-4-(Adenin-9-yl)-2-hydroxymethyl-1-fluorobut-1-ene]"
2,0.6,"C=C(CO)CCn1cnc2c(N)ncnc21 [Compound C, 4-(Adenin-9-yl)-2-hydroxymethylbut-1-ene]"
3,0.25,"Nc1ncnc2c1ncn2CC/C(=C\F)CO [Compound A, (E)-4-(Adenin-9-yl)-2-hydroxymethyl-1-fluorobut-1-ene]"
